Data set [1] can be described thus: Phase I, single inhaled, inhaled + charcoal, oral and intravenous doses in healthy male subjects: plasma concentrations, lung deposition. In kind it is in vivo, human. The method, then: Healthy white male subjects, aged 18 to 45 years with a body mass index (BMI) above/equal 18.5 and below/equal 29.9 kg/m^2 were treated in a clinical phase I study with a single inhaled dose of 1000 μg (nominal dose), a single inhaled dose of 1000 μg (nominal dose)+charcoal block, a single oral dose of 1000 μg and a single infusion over 2 h of 100 μg of example 4. As the bioavailability of an intravenous application is generally 100% per definition and therefore higher than in case of an oral or […], the intravenous dose was carefully selected to be lower than the oral and inhaled dose to avoid higher plasma concentration resulting from a high IV dose and potential side effect, e.g. reduction in blood pressure or syncope. Therefore, 100 μg was selected for the IV dose in this investigation. Seven days washout period between treatments was applied. The subjects swallowed a solution for oral administration (20 ml comprising 1000 μg see under C-2, table 49a). The subjects received a solution as a single infusion over 2 hours (2 ml comprising 100 μg see under C-2 table 49a). The subjects inhaled the drug powder from capsules (see under C-1, tables 17 and 20) inserted into a handheld inhalation device by one deep inhalative breath. After inhalation of the dry powder formulation of this drug, some parts of the nominal dose remain in the capsule and the device, the dose which reaches the body at the mouthpiece is called the emitted dose. The emitted dose can be calculated/determined as followed: nominal dose−(remains in the capsule+remains in the device). After inhalation of the dry powder, one part of the emitted dose enters the gastrointestinal tract (GT and is called the oral part of the emitted dose, the other part of the emitted dose which reaches the lung through the respiratory airways is called the lung dose and represents the lung deposited dose. As the lung is the target organ of the effect, the lung deposited dose must be quantified. Lung deposition can be indirectly estimated, by determining the part of the nominal dose which reaches the GIT and the remains in the capsule and the device. To investigate and determine lung deposition, the following investigations were done (see also FIG. 59): • 1—Inhaled application of a single dose of 1000 μg of the dry powder. • 2—Inhaled application of a single dose of 1000 μg of the dry powder in combination with oral administration of charcoal block. The charcoal block capped the oral absorption of GIT part of the dose, as example 4 completely adsorbed to charcoal block. This implies that the concentrations of example 4 measured reach the systemic circulation via the lung. • 3—Administration of a single oral dose of 1000 μg example 4 to determine the oral absorption. • 4—Administration of a 2 h infusion of example 4 to investigate the elimination.

Data set [2] is described as follows: Micronization of monohydrate II and monohydrate I (spiral jet mill): solid form after micronization. It counts as physicochemical. The settings on record: example 8e: 100 mm spiral jet mill. The source says: Generally no amorphization even partial nor form conversion should happen during the necessary micronization step.
The corresponding batches (examples 8a-8d) were micronized using a 50 mm spiral jet mill and pressurized nitrogen with the following parameters (see table 16b).
The corresponding batches were micronized using a 100 mm spiral jet mill and pressurized nitrogen with the following parameters (see table 16c).

Data set [3] concerns anesthetized thromboxane A2 challenged PAH-minipig. Nature of the data set: Haemodynamics in the anesthetized thromboxane challenged minipig (PAH minipig), inhaled nebulized solution: lung selectivity and duration of action. It counts as in vivo, Göttingen Minipigs. How it is done: Healthy Göttingen Minipigs® Ellegaard (Ellegaard, Denmark) of both sexes and having a weight of 2-6 kg were used. The animals were sedated by i.m. administration of about 25 mg/kg ketamine and about 10 mg/kg azaperone. Anaesthesia was initiated by i.v. administration of about 2 mg/kg ketamine and about 0.3 mg/kg midazolam. Maintenance of anaesthesia was by i.v. administration of about 7.5-30 mg/kg/h ketamine and about 1-4 mg/kg/h midazolam (rate of infusion 1-4 ml/kg/h) and about 150 μg/kg/h pancuronium bromide (for example Pancuronium-Actavis). After intubation, the animals were ventilated by the ventilator at a constant respiratory volume (10-12 ml/kg, 35 breaths/min; Avea®, Viasys Healthcare, USA, or Engström Carestation, GE Healthcare, Freiburg, Germany) such that an end-tidal CO2 concentration of about 5% was achieved. Ventilation was performed with room air, enriched with about 40% oxygen (normoxia). For the measurement of the haemodynamic parameters such as pulmonary arterial pressure (PAP), blood pressure (BP) and heart rate (HR), catheters were inserted into the carotid artery to measure the blood pressure, and a Swan-Ganz® catheter was introduced in a flow-directed manner via the jugular vein into the pulmonary artery. The haemodynamic signals were recorded and evaluated by means of pressure transducers (Combitransducer, B. Braun, Melsungen, Germany)/amplifiers and Ponemah® as data acquisition software.
After the instruments have been placed into the animals, continuous infusion of a thromboxane A2 analog was initiated to increase the pulmonary arterial pressure. About 0.3-0.75 μg/kg/min of 9,11-didesoxy-9α,11α-epoxymethanoprostaglandine F2α (U-44069; Sigma, cat. no. D0400, or Cayman Chemical Company, cat. no. 16440), dissolved in physiological saline, were infused to achieve an increase of the mean pulmonary arterial pressure to values of over 25 mmHg. 30 minutes after the start of the infusion, a plateau was reached, and the experiment was started.
The test substances were administered as i.v. infusion or by inhalation. For the preparation of the solution for inhalation, the following procedure was adopted: For an animal having a weight of 4 kg, to prepare the stock solution (300 μg/kg), 1.2 mg of the test compound were weighed out and dissolved in a total volume of 3 ml (1% DMSO, 99% 0.2% strength citric acid solution, 1 n aqueous sodium hydroxide solution to adjust the pH to 8). The solution was then diluted to the concentration employed using 0.2% strength citric acid which had been adjusted to pH 8 beforehand with aqueous sodium hydroxide solution. In each test, 3 ml of the solution of test compound per 4 kg animal were nebulized in the inhalation arm of the respiratory circuit using the Aeroneb® Pro nebulizer system. The mean nebulization time was about 7 min from the start of the nebulization.
With respect to a prediction of the duration of action for human studies comparative example 11 was compared in the PAH minipig model after inhaled application to Ventavis® (=Iloprost, 10 μg/kg nominal dose), which we used as a clinical reference. […] Therefore, the duration of action is more than 6 times longer compared to Ventavis in this preclinical animal model.

The test system of a further data set is plasma proteins. The experiment in a line: Protein binding via Transil assay, rat plasma. In kind it is in vitro ADME. The source says:
The distribution of a test substance between Transil® (phosphatidylcholine lipid bilayers immobilized on silica beads) and plasma is a characteristic feature of any pharmaceutical compound and is dependent on its extent of binding to plasma proteins. By comparing the distribution between Transil® and buffer with the distribution between Transil® and plasma of any species of interest, the unbound fraction in the plasma of the respective animal species can be calculated in vitro. The respective plasma and buffer concentrations were determined via a radioactivity analysis. A detailed description of the method and its validation was published by Schuhmacher et al. (2).

The subject of data set [4] is acetylcholine [ACh] rat model. Nature of the data set: Acetylcholine [ACh] rat model, bronchodilation. To be noted: in vivo.

Regarding `O=C(O)c1ccc(CCN(CCc2ccccc2OCc2ccc(-c3ccc(C(F)(F)F)cc3)cc2Cl)[C@H]2CCCc3nc(C(=O)O)ccc32)cc1` [Example 4, (5S)—{[2-(4-Carboxyphenyl)ethyl][2-(2-{[3-chloro-4′-(trifluoromethyl)biphenyl-4-yl]methoxy}phenyl)-ethyl]amino}-5,6,7,8-tetrahydroquinoline-2-carboxylic Acid as Monohydrate I], the absolute bioavailability in data set [1] (dry powder inhaled with charcoal) amounted to 16.3%; in data set [1] (dry powder inhaled without charcoal), 18.8%. Moreover, the elimination half-life is given as 16.1 h in data set [1] (inhaled 1000 μg with charcoal); 15.1 h in data set [1] (inhaled 1000 μg without charcoal); 0.26 h in data set [1] (intravenous, 100 μg infusion over 2 h); 4.43 h in data set [1] (oral, 1000 μg). Also, the “stability under micronization conditions” value in data set [2] was “stable”.
`O=C(O)c1ccc(CCN(CCc2ccccc2OCc2ccc(-c3ccc(C(F)(F)F)cc3)cc2Cl)[C@H]2CCCc3nc(C(=O)O)ccc32)cc1` [Comparative example 11, (5S)-5-{[2-(4-carboxyphenyl)ethyl][2-(2-{[3-chloro-4′-(trifluoromethyl)[biphenyl]-4-yl]methoxy}phenyl)ethyl]amino}-5,6,7,8-tetrahydroquinoline-2-carboxylic Acid]: in data set [3] (5% reduction in PAP, nebulized), the “minimal effective nominal dose” value was found to be 3 µg/kg. For the same compound, the “dose dependent efficacy (PAP) during observation interval” value in data set [3] (all doses (10, 30 and 100 μg/kg nominal dose), inhaled) is on record as 240 min. The “selective PAP effect, duration of maximal effect” value in data set [3] (inhaled application, whole observation interval) is on record as 240 min. In data set [3] (minipig model, inhaled), the duration of action result is recorded as “sufficient duration of action”. The “time of maximal effect on PAP after inhaled application” value in data set [3] (nebulized solution) is “about 90 min”. For the same compound, the “fraction unbound, lower than comparative example 1” value in the data set on plasma proteins is reported as 1.6 times lower. Besides, in data set [4], the effect on ventilation entry was “bronchodilatory effect”.

The values are drawn from patent publication US20250281480A1, “PHARMACEUTICAL DRY POWDER INHALATION FORMULATION” (Bayer Aktiengesellschaft, priority 2021, published 2025).
